This note sets out measurements from patent US11667621B2, “Antiestrogen compounds” (STEVENS INSTITUTE OF TECHNOLOGY, priority 2018, dated 2023).

SMILES strings stand for the structures. Substitutions are numbered along the chain they refer to.

Test [1] addresses T1, full length human estrogen receptor a (Homo sapiens, UniProt P03372).
T1 construct: purified, full-length human estrogen receptor a from Invitrogen; purchased Invitrogen
T1 sequence (P03372 1-595): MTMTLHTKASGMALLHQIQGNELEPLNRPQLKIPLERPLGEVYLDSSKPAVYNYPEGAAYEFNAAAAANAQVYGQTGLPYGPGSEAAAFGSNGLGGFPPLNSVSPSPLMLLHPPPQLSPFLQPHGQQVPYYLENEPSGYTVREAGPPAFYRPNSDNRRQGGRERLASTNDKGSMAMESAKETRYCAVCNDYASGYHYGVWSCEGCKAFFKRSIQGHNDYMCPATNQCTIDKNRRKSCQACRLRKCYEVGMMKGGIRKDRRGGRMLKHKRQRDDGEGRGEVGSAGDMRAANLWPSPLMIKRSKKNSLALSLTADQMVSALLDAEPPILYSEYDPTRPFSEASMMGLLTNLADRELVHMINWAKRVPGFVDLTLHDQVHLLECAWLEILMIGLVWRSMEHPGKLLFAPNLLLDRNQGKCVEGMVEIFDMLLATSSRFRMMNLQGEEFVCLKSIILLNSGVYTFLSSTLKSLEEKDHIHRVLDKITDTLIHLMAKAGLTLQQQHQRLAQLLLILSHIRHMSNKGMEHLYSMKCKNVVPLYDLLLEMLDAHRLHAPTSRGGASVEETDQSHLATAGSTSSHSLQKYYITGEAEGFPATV
Description: Competitive radiometric binding assay (RBA), tritiated estradiol tracer. Conditions: relative to estradiol = 100; average SD of 2-3 determinations. How it is done: Tritiated estradiol was obtained from Perkin Elmer and purified, full-length human estrogen receptor a from Invitrogen.
Competitive radiometric binding assays (RBA) were performed on 96-well microtiter filter plates (Millipore), using full length human estrogen receptor a, with tritiated estradiol as tracer, as previously described (Carlson K E, Choi I, Gee A, Katzenellenbogen B S, Katzenellenbogen J A. Altered ligand binding properties and enhanced stability of a constitutively active estrogen receptor: evidence that an open pocket conformation is required for ligand interaction. Biochemistry 1997, 36(48), 14897-14905). After incubation on ice for 18-24 h, ERα-bound tracer was absorbed onto hydroxyapatite (BioRad), washed with buffer, and measured by scintillation counting. RBA values are the average SD of 2-3 determinations.

The nature of test [2]: Cell proliferation assay (WST-1), 6-day exposure. Conditions: 144 h, read-out: Antiproliferation IC50. The class given is cell-based. How it is done: Cell proliferation assay: WST-1 assay (Roche, Basel, Switzerland) was used to quantify cell viability after a 6-day exposure to compounds, as described in Gong et al. Mol. Cell. Endocrinol. 2016, 437, 190-200. Absorbance was measured at 450 nm using a VICTOR X5 PerkinElmer 2030 Multilabel Plate Reader, and cell proliferation values represent signal from compound-treated samples relative to vehicle-treated controls. All assays were performed in triplicate, and the values shown are the average SD of 2-3 independent experiments.
A general note: Tetrazolium assays rely on reduction of a dye to a coloured formazan, in cell work by metabolically active cells.

In a further test the target is T2, HA-ERα D538G (Homo sapiens, UniProt P03372, D538G).
T2 construct: HA; expressed in transfected cells
T2 sequence (P03372 1-595 D538G): T1 sequence (P03372 1-595) with D538G
The experiment in a line: Luciferase assay, overexpressed ER (3×-ERE-TATA-Luciferase reporter). Type of test: cell-based. Conditions: compound concentration 1 μM, 24 hours. How it is done:
(§1) Luciferase assays were performed to determine the efficacy of the example compounds at inhibiting ER or its mutants' ability to activate transcription of genes.
(§2) Cells were plated at a density of 0.15×10^6 per well of 24 well plates one day prior to transfection. Cells were transfected with 125 ng (per well) of HA-ERα wild type or mutants, 315 ng (per well) of 3×-ERE-TATA-Luciferase reporter and 50 ng (per well) of pRL-TK Renilla Luciferase plasmid, using Xtremegene (Roche). The cells were treated with the various compounds or Fulvestrant at the indicated doses a day after transfection for 24 hours and luciferase activities were determined using the Dual-Luciferase® Reporter Assay System (Promega) according to manufacturer's instructions. Luciferase bioluminescence measurements were performed with the Veritas™ Microplate Luminometer (Promega). All experiments were conducted in triplicate and the Firefly luciferase activity was normalized with the Renilla luciferase activity of each sample.

A further test deals with T3, HA-ERα L536R (Homo sapiens, UniProt P03372, L536R).
T3 construct: HA; expressed in transfected cells
T3 sequence (P03372 1-595 L536R): T1 sequence (P03372 1-595) with L536R
The description is as above. The class given is cell-based. Conditions: compound concentration 1 μM, 24 hours. How it is done:
as §1, §2

Another test addresses T4, HA-ERα Y537S (Homo sapiens, UniProt P03372, Y537S).
T4 construct: HA; expressed in transfected cells
T4 sequence (P03372 1-595 Y537S): T1 sequence (P03372 1-595) with Y537S
The test is described as above. Type of test: cell-based. Conditions: compound concentration 1 μM, 24 hours. How it is done:
as §1, §2

Another test concerns the target T5, HA-ERα wild type (Homo sapiens, UniProt P03372).
T5 construct: HA; expressed in transfected cells
T5 sequence (P03372 1-595): T1 sequence (P03372 1-595)
The description is as above. The class given is cell-based. Conditions: compound concentration 1 μM, 24 hours; read-out: Overexpressed ER (% Inhibition) WT. How it is done: as §1, §2

Take `CC(C)C[C@H](NC(=O)OC(C)(C)C)C(=O)NCCCCOc1ccc(C(=C2C3CC4CC(C3)CC2C4)c2ccc(O)cc2)cc1` [Example 2, (S)-tert-Butyl (1-((4-(4-(adamantan-2-ylidene(4-hydroxyphenyl)methyl)-phenoxy)butyl)amino)-4-methyl-1-oxopentan-2-yl)carbamate]: the “RBA (estradiol = 100)” value in test [1] was found to be 14 ± 1. Also, the IC50 in test [2] was determined as 36 nM.
For `CC(C)(C)OC(=O)N[C@@H](Cc1ccccc1)C(=O)NCCCCOc1ccc(C(=C2C3CC4CC(C3)CC2C4)c2ccc(O)cc2)cc1` [Example 3, (S)-tert-Butyl(1-((4-(4-(adamantan-2-ylidene(4-hydroxyphenyl)methyl)-phenoxy)butyl)amino)-1-oxo-3-phenylpropan-2-yl)carbamate] the same measures were 14 ± 4 and 7 nM.
On the same counts, the results for `O=C(NCCOc1ccc(C(=C2C3CC4CC(C3)CC2C4)c2ccc(O)cc2)cc1)C12CC3CC(CC(C3)C1)C2` [Example 4, N-(2-(4-(Adamantan-2-ylidene(4-hydroxyphenyl)methyl)phenoxy)ethyl)-adamantane-1-carboxamide] are 21 ± 6 and 17 nM.
On the same counts, the results for `O=C(NCCCOc1ccc(C(=C2C3CC4CC(C3)CC2C4)c2ccc(O)cc2)cc1)C12CC3CC(CC(C3)C1)C2` [Example 5, N-(3-(4-(Adamantan-2-ylidene(4-hydroxyphenyl)methyl)phenoxy)propyl)-adamantane-1-carboxamide] are 26 ± 6 and 9 nM.
For the molecule `O=C(NCCCCOc1ccc(C(=C2CCCCC2)c2ccc(O)cc2)cc1)[C@H]1CC[C@H](C(F)(F)F)CC1` [Example 25, (trans)-N-(4-(4-(Cyclohexylidene(4-hydroxyphenyl)methyl)phenoxy)butyl)-4-(trifluoromethyl)cyclohexanecarboxamide], the inhibition at 1 µM is 42% against HA-ERα D538G, 36% at HA-ERα L536R, -39% against HA-ERα Y537S and 77% on HA-ERα wild type.
For `O=C(NCCCCOc1ccc(C(=C2CCCCC2)c2ccc(O)cc2)cc1)C12CC3CC(CC(C3)C1)C2` [Example 26, N-(4-(4-(Cyclohexylidene(4-hydroxyphenyl)methyl)phenoxy)-butyl)adamantane-1-carboxamide] the same measures were 65%, 69%, -32% and 52%.
On the same counts, the results for `O=C(NCCCCOc1ccc(Oc2c(-c3ccc(O)cc3)sc3cc(O)ccc23)cc1)C1CCC1` [Example 28, N-(4-(4-((6-Hydroxy-2-(4-hydroxyphenyl)benzo[b]thiophen-3-yl)oxy)phenoxy)butyl)cyclobutanecarboxamide] are 60%, 43%, -64% and 13%.
Take `O=C(NCCCCOc1ccc(Oc2c(-c3ccc(O)cc3)sc3cc(O)ccc23)cc1)C1CC(F)(F)C1` [Example 29, 3,3-Difluoro-N-(4-(4-((6-hydroxy-2-(4-hydroxyphenyl)benzo[b]thiophen-3-yl)oxy)phenoxy)butyl)cyclobutanecarboxamide]: the inhibition at 1 µM is 73% on HA-ERα D538G, 90% at HA-ERα L536R, 1% against HA-ERα Y537S and 39% on HA-ERα wild type.

The term inhibition denotes the change of the read-out against control, counted positive when it falls.
